Test system: LTB4
Test: LTB4 ELISA of B16 tumors
Assay type: in vivo, mouse
Details: agent given prior to neutrophil-activating therapy
Protocol: LTB4 ELISA. Tumors were dissected away from surrounding fat 24 hours post-treatment and lysed in PBS using 3 mm zirconium beads (Benchmark Scientific) in the BeadBug Microtube Homogenizer (Benchmark Scientific) for 2 cycles of 45 seconds at 3000 rpm. Crude lysate was centrifuged for 15 minutes at 16000×g at 4° C. to obtain clarified lysate. Clarified lysate was deproteinized by ethanol precipitation by adding 4 volumes of 100% ethanol, incubating on ice for 5 minutes, and centrifuging for 10 minutes at 3000×g at 4° C. Deproteinized supernatant was transferred to a new tube, ethanol was removed by evaporation at room temperature, and samples were brought to the appropriate volume in ELISA assay buffer. LTB4 content was determined with the Leukotriene B4 ELISA kit (Cayman Chemical 520111) according to the manufacturer's instructions and read with a Victor X4 fluorescence microplate reader (PerkinElmer).
Ex vivo neutrophil LTB4 assay. B16 tumors were harvested from mice 12 hours after treatment with TNF+anti-CD40+anti-gp75 and digested with collagenase IV and DNase I as described above. […] Following the incubation, the supernatant was collected, centrifuged to remove cells and debris, and analyzed for LTB4 using the Leukotriene B4 ELISA kit (Cayman Chemical 520111) as described above.

Compound: N#Cc1cc(-c2n[nH]c(-c3ccncc3)n2)ccn1 [topiroxostat]
- effect of agent on LTB4 production: did not prevent
